# Literature values as cited in PMC2650103 (Journal of medicinal chemistry, 2008).
# System: cowpox, vaccinia or ectromelia virus
# Details: mouse, in vivo, po; cited from earlier work
smiles,measurement,value
"O=C(NN1C(=O)C2C3C=CC(C4CC34)C2C1=O)c1ccc(C(F)(F)F)cc1 (stereo not shown) [Compound 30, 4-trifluoromethyl-N-(3,3a,4,4a,5,5a,6,6a-octahydro-1,3-dioxo-4,6-ethenocycloprop[f]isoindol-2(1H)-yl)-benzamide]",Protection against viral spread in mice,effective in protecting against viral spread
